Test results published in patent US20110151034A1, “ANTIBACTERIAL AGENT AND DISINFECTING METHOD” (Mitsubishi Chemical Corporation, priority 2008, published 2011).

Legend:
[1] = system: Listeria monocytogenes ATCC49594; experiment: Antibacterial test in BHI culture medium: turbidity, inhibitory ratio and bacteria growth (Experimental Example 2); format: cell-based; details: for Number of bacteria (cfu/ml): culture 30° C. 24 hours, then BHI agar 37° C. 24 hours; for Inhibitory ratio (%): from turbidity vs dimethylsulfoxide standard; for Inhibitory ratio (%) / Turbidity of culture fluid: 30° C. for 24 hours; for Turbidity of culture fluid: 660 nm
Description: The above obtained isolated components were diluted with dimethylsulfoxide (manufactured by KANTO CHEMICAL CO., INC.) to prepare three test liquids at fraction concentrations (wt %) of 2%, 1% and 0.5%. As positive controls, erythromycin (manufactured by Wako Pure Chemical Industries Ltd.) was dissolved in ethanol (Junsei Chemical Co., Ltd.) to have a concentration of 1,000 ppm, 500 ppm or 250 ppm. As a negative control, sterilized water was used.
The antibacterial test was carried out by using Listeria monocytogenes ATCC49594 as follows.
(1) 8.9 ml of a brain heart infusion (BHI) culture medium (manufactured by NISSUI PHARMACEUTICAL CO., LTD.) was put in a test tube and treated in an autoclave (manufactured by TOMY SEIKO CO., LTD., TOMY BS-325). The culture medium concentration was adjusted to achieve a specified concentration when 0.1 ml of the above test liquid was added.
Listeria monocytogenes ATCC 49594 was cultured in the BHI culture medium by shake culture at 37° C. for 1 hour and diluted to an appropriate bacteria concentration (2.0×10^3 cfu/ml) by the BHI culture medium.
To the test tube in which 8.9 ml of the BHI culture medium prepared in the above (1) was put, 0.1 ml of the prepared test liquid and 1 ml of the bacteria liquid prepared in the above (2) were added, stirred and left at rest at 30° C. for 24 hours.
The turbidity of the culture fluid in the test tube left at rest at 30° C. for 24 hours was measured by a turbidimeter (manufactured by TAITEC CORPORATION, miniphoto 518R) at a wavelength of 660 nm. The inhibitory ratio was calculated from the following formula, where A is the turbidly in the case of a culture fluid to which 0.1 ml of dimethylsulfoxide was added instead of the test liquid.
Inhibitory ratio (%)=[(A−[turbidity of culture fluid])/A]×100
The culture fluid in the test tube left at rest at 30° C. for 24 hours was diluted with a phosphate buffer solution (PBS) and smeared on a BHI agar medium. After culturing at 37° C. for 24 hours, the number of bacteria on the agar medium was measured by observation with a microscope. With respect to the dilution with PBS, the culture fluid was preliminarily properly diluted within a range of from 10^2 to 10^9 times to such a concentration that the number of bacteria can be counted with a microscope 24 hour later (the number of bacteria 24 hours later was calibrated in accordance with the proportion preliminarily diluted with PBS).

[2] = system: Listeria monocytogenes JCM2873; experiment: Antibacterial test, colony formation on Mueller Hinton agar after culture with sample (Experimental Example 1); format: cell-based; details: 10 ppm at the time of test; 37° C. for 24 hours, then agar 37° C. for 2 days; negative control 3×10^8 cfu/ml
Description: The components (Terpenoid-1 and Terpenoid-2) isolated from the water-insoluble rosemary extract were dissolved in DMSO (dimethylsulfoxide) at a concentration of 2,000 ppm to obtain samples for antibacterial activity test. The antibacterial test was carried out as follows using Listeria monocytogenes JCM2873. 8.95 ml of Mueller Hinton Broth (MHB) culture medium was put in a test tube and sterilized in an autoclave. The culture medium concentration was adjusted to achieve a specified concentration when 50 μl of the sample was added. Listeria monocytogenes JCM2873 was cultured by shake culture at 37° C. for 1 day in the MHB culture medium, and diluted to an appropriate bacteria concentration (3.1×10^4 cfu/ml) by the MHB culture medium. To the test tube in which 8.95 ml of the MHB culture medium prepared in the above (1) was put, 50 μl of the sample and 1 ml of the bacteria liquid prepared in the above (2) were added and stirred (isolated component concentration at the time of test: 10 ppm) and left at rest at 37° C. for 24 hours. As a negative control and a positive control, sterilized water and erythromycin (solution at a concentration of 2,000 ppm in ethanol) were added instead of the sample. From the test tube left at rest at 37° C. for 24 hours, a loopful of the culture fluid was collected and smeared on a Mueller Hinton agar medium. After culturing at 37° C. for 2 days, formation of colonies on the agar medium and its degree were judged.

[3] = 50, 100, 200 ppm, same conditions as for Terpenoid-1 and Terpenoid-2
[4] = at a concentration of 50 ppm or higher

Compound	antibacterial activity against Listeria monocytogenes (in words) [1, 3]	Number of bacteria (cfu/ml) ([1]; added substance 50 ppm)	Inhibitory ratio (%) ([1]; added substance 50 ppm)	Number of bacteria (cfu/ml) ([1]; added substance 100 ppm)	Inhibitory ratio (%) ([1]; added substance 100 ppm)	Number of bacteria (cfu/ml) ([1]; added substance 200 ppm)	Inhibitory ratio (%) ([1]; added substance 200 ppm)	formation of colonies on the agar medium [2]	also measured
CCO[C@H]1c2cc(C(C)C)c(O)c(O)c2[C@@]23CCCC(C)(C)[C@@H]2[C@@H]1OC3=O [7α-Ethoxyrosmanol, 7α-ethoxyrosmanol]	low or no antibacterial activity	2.5 × 10^9 cfu/ml	4.0%	3.6 × 10^9 cfu/ml	0.5%	3.8 × 10^9 cfu/ml	2.6%		
COc1c(C(C)C)cc2c(c1O)C1(C(=O)O)CCCC(C)(C)C1CC2 (stereo not drawn) [12-Methoxy-tarns-carnosic acid, 12-methoxy-trans-carnosic acid]	low or no antibacterial activity	3.1 × 10^9 cfu/ml	11.8%	4.1 × 10^9 cfu/ml	17.7%	4.3 × 10^9 cfu/ml	20.6%		
C=C(C)[C@@H]1CC[C@]2(C(=O)O)CC[C@]3(C)[C@H](CC[C@@H]4[C@@]5(C)CC[C@H](O)C(C)(C)[C@@H]5CC[C@]43C)[C@@H]12 [Betulinic acid]		4.0 × 10^9 cfu/ml	0.0%	4.5 × 10^9 cfu/ml	0.0%	3.0 × 10^9 cfu/ml	0.0%		
CC(C)c1cc2c(c(O)c1O)[C@@]13CCCC(C)(C)[C@@H]1C[C@@H]2OC3=O [Carnosol]	low or no antibacterial activity	4.3 × 10^9 cfu/ml	0.0%	4.7 × 10^9 cfu/ml	0.0%	3.9 × 10^9 cfu/ml	0.0%		
CC(C)c1cc2c(c(O)c1O)[C@@]13CCCC(C)(C)[C@@H]1[C@H](OC3=O)[C@@H]2O [Epirosmanol]	low or no antibacterial activity	4.0 × 10^9 cfu/ml	0.0%	4.2 × 10^9 cfu/ml	0.0%	3.2 × 10^9 cfu/ml	0.0%		
CC[C@H]1OC(=O)[C@H](C)[C@@H](O[C@H]2C[C@@](C)(OC)[C@@H](O)[C@H](C)O2)[C@H](C)[C@@H](O[C@@H]2O[C@H](C)C[C@H](N(C)C)[C@H]2O)[C@](C)(O)C[C@@H](C)C(=O)[C@H](C)[C@@H](O)[C@]1(C)O [Erythromycin, erythromycin]								no formation of colonies	Turbidity of culture fluid ([1]; added substance 2.5 ppm): 0.011; Number of bacteria (cfu/ml) ([1]; added substance 2.5 ppm): 3.7 × 10^2 cfu/ml; Inhibitory ratio (%) ([1]; added substance 2.5 ppm): 97.8%; Turbidity of culture fluid ([1]; added substance 5 ppm): 0.022; Number of bacteria (cfu/ml) ([1]; added substance 5 ppm): 9.5 × 10^2 cfu/ml; Inhibitory ratio (%) ([1]; added substance 5 ppm): 95.6%; Turbidity of culture fluid ([1]; added substance 10 ppm): −0.008; Number of bacteria (cfu/ml) ([1]; added substance 10 ppm): 1.8 × 10^2 cfu/ml; Inhibitory ratio (%) ([1]; added substance 10 ppm): 98.4%; antibacterial property (in words) ([1]; concentration range of from 2.5 to 10 ppm): high antibacterial property
CC(C)c1cc2c(c(O)c1O)[C@@]13CCCC(C)(C)[C@@H]1[C@H](OC3=O)[C@H]2O [Rosmanol]	low or no antibacterial activity	3.9 × 10^9 cfu/ml	10.2%	3.7 × 10^9 cfu/ml	5.1%	3.9 × 10^9 cfu/ml	16.0%		
CC(C)c1cc2c(cc1O)[C@@]1(C)CCCC(C)(C)[C@@H]1CC2 [Terpenoid-1, ferruginol]		3.8 × 10^9 cfu/ml	4.6%	1.6 × 10^9 cfu/ml	43.0%	3.8 × 10^6 cfu/ml	100%	no formation of colonies	Turbidity of culture fluid ([1]; added substance 50 ppm): 0.485; Turbidity of culture fluid ([1]; added substance 100 ppm): 0.290; Turbidity of culture fluid ([1]; added substance 200 ppm): −0.003; antibacterial activity against Listeria monocytogenes (in words) [1, 4]: confirmed to have antibacterial activity
CC(C)c1cc2c(cc1O)[C@H]1CCCC(C)(C)[C@@H]1CC2 [Terpenoid-2]		4.4 × 10^9 cfu/ml	7.2%	2.5 × 10^9 cfu/ml	21.0%	1.3 × 10^9 cfu/ml	47.2%	no formation of colonies	Turbidity of culture fluid ([1]; added substance 50 ppm): 0.472; Turbidity of culture fluid ([1]; added substance 100 ppm): 0.402; Turbidity of culture fluid ([1]; added substance 200 ppm): 0.268; antibacterial activity against Listeria monocytogenes (in words) [1, 4]: confirmed to have antibacterial activity
